Experimental data reported in PubChem BioAssay (NCI).
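Tested at 5 concentrations; 48 h exposure; 96-well plates; endpoints linearly interpolated, else capped at highest concentration. GI50: concentration for 50% inhibition of growth. TGI marks complete inhibition of growth.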

Columns and labels:
Assay in all cases: NCI tumour cell line growth inhibition, 48 h
SK-MEL-5 melanoma = test system: SK-MEL-5 melanoma
RPMI-8226 leukemia = test system: RPMI-8226 leukemia
OVCAR-5 ovarian = test system: OVCAR-5 ovarian
NCI-H226 lung = test system: NCI-H226 lung
EKVX NSCLC = test system: EKVX NSCLC
SNB-75 CNS = test system: SNB-75 CNS
SN12C renal = test system: SN12C renal
ACHN renal = test system: ACHN renal
786-0 renal = test system: 786-0 renal
A549 NSCLC = test system: A549 NSCLC

## ClC1=C(Cl)C(Cl)(C2(Cl)C(Cl)=C(Cl)C(Cl)=C2Cl)C(Cl)=C1Cl
SK-MEL-5 melanoma
  GI50: 1.27 µM
  TGI: 2.73 µM
RPMI-8226 leukemia
  GI50: 0.252 µM
  TGI: 0.696 µM
OVCAR-5 ovarian
  GI50: 1.22 µM
  TGI: 2.76 µM
NCI-H226 lung
  GI50: 0.296 µM
  TGI: 2.74 µM
EKVX NSCLC
  GI50: 1.52 µM
  TGI: 3.88 µM
SNB-75 CNS
  GI50: 1.63 µM
  TGI: 4.46 µM
SN12C renal
  GI50: 1.32 µM
  TGI: 3.8 µM
ACHN renal
  GI50: 0.165 µM
  TGI: 0.312 µM
786-0 renal
  GI50: 0.242 µM
  TGI: 0.746 µM
A549 NSCLC
  GI50: 1.87 µM
  TGI: 4.16 µM

## CC(C)=CC[C@@H]1CC2(CC=C(C)C)C(=O)C(OC3(C(=O)c4ccccc4)C(=O)C4(CC=C(C)C)C[C@@H](CC=C(C)C)C(C)(C)C(CC=C(C)C)(C4=O)C3=O)(C(=O)c3ccccc3)C(=O)C(CC=C(C)C)(C2=O)C1(C)C (some centres undefined)
SK-MEL-5 melanoma
  GI50: 0.806 µM
  TGI: 1.58 µM
RPMI-8226 leukemia
  GI50: 1.05 µM
  TGI: 2.7 µM
OVCAR-5 ovarian
  GI50: 1.51 µM
  TGI: 8.06 µM
NCI-H226 lung
  GI50: 1.34 µM
  TGI: 3.9 µM
EKVX NSCLC
  GI50: 1.2 µM
  TGI: 4.2 µM
SNB-75 CNS
  GI50: 1.11 µM
  TGI: 5.62 µM
SN12C renal
  GI50: 1.54 µM
  TGI: 5.67 µM
ACHN renal
  GI50: 1.48 µM
  TGI: 5.99 µM
786-0 renal
  GI50: 0.963 µM
  TGI: 2.61 µM
A549 NSCLC
  GI50: 1.73 µM
  TGI: 6.05 µM

## N#CC(C(=O)CCCC(=O)Nc1ccccc1[N+](=O)[O-])c1c(Cl)cccc1Cl (centres undefined)
SK-MEL-5 melanoma
  TGI: > 100 µM
RPMI-8226 leukemia
  TGI: > 100 µM
OVCAR-5 ovarian
  TGI: > 100 µM
NCI-H226 lung
  TGI: > 100 µM
EKVX NSCLC
  TGI: > 100 µM
SNB-75 CNS
  TGI: > 100 µM
SN12C renal
  TGI: > 100 µM
ACHN renal
  TGI: > 100 µM
786-0 renal
  TGI: > 100 µM
A549 NSCLC
  TGI: > 100 µM

## COC(=O)c1c2c(c(C)[n+]([O-])c1C)C(=O)C(NCc1ccc(OC)cc1)=CC2=O
SK-MEL-5 melanoma
  GI50: 1.13 µM
  TGI: 2.39 µM
RPMI-8226 leukemia
  GI50: 2.41 µM
  TGI: 7.78 µM
OVCAR-5 ovarian
  GI50: 1.8 µM
  TGI: 4.06 µM
NCI-H226 lung
  GI50: 3.45 µM
  TGI: 13.5 µM
EKVX NSCLC
  GI50: 1.88 µM
  TGI: 4.44 µM
SNB-75 CNS
  GI50: 3.5 µM
  TGI: 14.3 µM
SN12C renal
  GI50: 1.62 µM
  TGI: 3.65 µM
ACHN renal
  GI50: 2.35 µM
  TGI: 9.11 µM
786-0 renal
  GI50: 3.15 µM
  TGI: 18.8 µM
A549 NSCLC
  GI50: 2.9 µM
  TGI: 10.2 µM

## CCCCn1c(=O)[nH]c(N)c([C@@H]2c3c([nH]c(=O)n(CCCC)c3=O)Oc3ccc4ccccc4c32)c1=O
SK-MEL-5 melanoma
  GI50: 3.06 µM
  TGI: 10.7 µM
RPMI-8226 leukemia
  GI50: 3.48 µM
  TGI: 13.5 µM
OVCAR-5 ovarian
  GI50: 3.63 µM
  TGI: 13.8 µM
NCI-H226 lung
  GI50: 4.96 µM
  TGI: 25.2 µM
EKVX NSCLC
  GI50: 4.64 µM
  TGI: 18.8 µM
SNB-75 CNS
  GI50: 1.71 µM
  TGI: 9.62 µM
SN12C renal
  GI50: 2.51 µM
  TGI: 6.94 µM
ACHN renal
  GI50: 1.8 µM
  TGI: 3.59 µM
786-0 renal
  GI50: 2.04 µM
  TGI: 4.41 µM
A549 NSCLC
  GI50: 11.5 µM
  TGI: 24.5 µM

## COc1ccc(C2=NN(C(N)=S)C(c3ccc4c(c3)OCO4)C2)cc1 (centres undefined)
SK-MEL-5 melanoma
  GI50: 2.47 µM
  TGI: 8.41 µM
RPMI-8226 leukemia
  GI50: 1.88 µM
  TGI: 6.33 µM
OVCAR-5 ovarian
  GI50: 2.79 µM
  TGI: 21.9 µM
NCI-H226 lung
  GI50: 2.49 µM
  TGI: 6.84 µM
EKVX NSCLC
  GI50: 2.54 µM
  TGI: 37.9 µM
SNB-75 CNS
  GI50: 2.75 µM
  TGI: 8.51 µM
SN12C renal
  GI50: 3.37 µM
  TGI: > 100 µM
ACHN renal
  GI50: 3.58 µM
  TGI: > 100 µM
786-0 renal
  GI50: 3.8 µM
  TGI: > 100 µM
A549 NSCLC
  GI50: 3.19 µM
  TGI: > 100 µM

## COc1cccc2c1nc(C(F)F)n2-c1nc(-c2ccc(NS(=O)(=O)CCN(C)C)cc2)nc(N2CCOCC2)n1
SK-MEL-5 melanoma
  GI50: 0.204 µM
  TGI: 1.76 µM
RPMI-8226 leukemia
  GI50: 0.272 µM
  TGI: 2.41 µM
OVCAR-5 ovarian
  GI50: 0.0909 µM
  TGI: 17.3 µM
NCI-H226 lung
  GI50: 0.191 µM
  TGI: 6.43 µM
EKVX NSCLC
  GI50: 0.0712 µM
  TGI: 1.7 µM
SNB-75 CNS
  GI50: 0.0246 µM
  TGI: 0.282 µM
SN12C renal
  GI50: 0.305 µM
  TGI: > 100 µM
ACHN renal
  GI50: 0.115 µM
  TGI: 11.2 µM
786-0 renal
  GI50: 0.231 µM
  TGI: 2.76 µM
A549 NSCLC
  GI50: 0.174 µM
  TGI: 4.33 µM

## CCN(Cc1ccc(OC)cc1)c1ccc(CO)c(Cl)c1
SK-MEL-5 melanoma
  GI50: 2.66 µM
  TGI: 18.6 µM
RPMI-8226 leukemia
  GI50: 6.23 µM
  TGI: 46.1 µM
OVCAR-5 ovarian
  GI50: 0.162 µM
  TGI: 0.636 µM
NCI-H226 lung
  GI50: 0.0519 µM
  TGI: 0.182 µM
EKVX NSCLC
  GI50: 20.5 µM
  TGI: > 83.3 µM
SNB-75 CNS
  GI50: 13.9 µM
  TGI: 45.6 µM
SN12C renal
  GI50: 14.5 µM
  TGI: 39.3 µM
ACHN renal
  GI50: 19.3 µM
  TGI: > 81.5 µM
786-0 renal
  GI50: 10.6 µM
  TGI: 45.4 µM
A549 NSCLC
  GI50: 2.62 µM
  TGI: 35.9 µM

## COC(=O)N[C@H]1CCc2cc(OC)c(OC)c(OC)c2-c2ccc(SC)c(=O)cc21
SK-MEL-5 melanoma
  GI50: < 0.01 µM
  TGI: 0.0191 µM
RPMI-8226 leukemia
  GI50: < 0.01 µM
  TGI: > 64.5 µM
OVCAR-5 ovarian
  GI50: < 0.01 µM
  TGI: > 100 µM
NCI-H226 lung
  GI50: < 0.01 µM
EKVX NSCLC
  GI50: < 0.01 µM
  TGI: > 100 µM
SNB-75 CNS
  GI50: < 0.01 µM
  TGI: > 100 µM
SN12C renal
  GI50: < 0.01 µM
  TGI: > 100 µM
ACHN renal
  GI50: < 0.01 µM
  TGI: > 100 µM
786-0 renal
  GI50: < 0.01 µM
  TGI: > 100 µM
A549 NSCLC
  GI50: < 0.01 µM
  TGI: > 100 µM

## COc1cc2cc(NCc3cccc(Cl)c3)nc(C)c2cc1OC
SK-MEL-5 melanoma
  GI50: 3.27 µM
  TGI: 13.7 µM
RPMI-8226 leukemia
  GI50: 0.539 µM
  TGI: 23.4 µM
OVCAR-5 ovarian
  GI50: 1.5 µM
  TGI: 25.4 µM
NCI-H226 lung
  GI50: 4.35 µM
  TGI: 26.3 µM
EKVX NSCLC
  GI50: 3.52 µM
  TGI: 36.5 µM
SNB-75 CNS
  GI50: 2.83 µM
  TGI: 19.4 µM
SN12C renal
  GI50: 2.21 µM
  TGI: 17.4 µM
ACHN renal
  GI50: 2.46 µM
  TGI: 23.1 µM
786-0 renal
  GI50: 1.7 µM
  TGI: 20.4 µM
A549 NSCLC
  GI50: 3.21 µM
  TGI: 37.6 µM

## O=P1(NCCCl)OCCCN1CCCl (centres undefined)
SK-MEL-5 melanoma
  TGI: 429 µM
RPMI-8226 leukemia
  TGI: 428 µM
OVCAR-5 ovarian
  TGI: 453 µM
NCI-H226 lung
  TGI: 425 µM
EKVX NSCLC
  TGI: 447 µM
SNB-75 CNS
  TGI: 435 µM
SN12C renal
  TGI: 437 µM
ACHN renal
  TGI: > 500 µM
786-0 renal
  TGI: > 466 µM
A549 NSCLC
  TGI: 434 µM

## COc1ccc2c(c1)[C@@H](NC(C)=O)CCc1cc(OC)c(OC)c(OC)c1-2
SK-MEL-5 melanoma
  TGI: 0.0298 µM
RPMI-8226 leukemia
  TGI: > 100 µM
OVCAR-5 ovarian
  TGI: > 100 µM
NCI-H226 lung
  TGI: > 16.3 µM
EKVX NSCLC
  TGI: > 100 µM
SNB-75 CNS
  TGI: 12.9 µM
SN12C renal
  TGI: > 100 µM
ACHN renal
  TGI: > 100 µM
786-0 renal
  TGI: > 100 µM
A549 NSCLC
  TGI: > 100 µM

## NC(N)NCCCc1cn2c(n1)C1CCCN1C(=O)C2Cc1ccccc1 (centres undefined)
SK-MEL-5 melanoma
  TGI: > 100 µM
RPMI-8226 leukemia
  TGI: > 100 µM
OVCAR-5 ovarian
  TGI: > 100 µM
NCI-H226 lung
  TGI: > 100 µM
EKVX NSCLC
  TGI: > 100 µM
SNB-75 CNS
  TGI: > 100 µM
SN12C renal
  TGI: > 100 µM
ACHN renal
  TGI: > 100 µM
786-0 renal
  TGI: > 100 µM
A549 NSCLC
  TGI: > 100 µM

## O=C(CCc1n[nH]c(=S)o1)Nc1cc(Cl)ccc1Cl
SK-MEL-5 melanoma
  TGI: > 100 µM
RPMI-8226 leukemia
  TGI: 46.3 µM
OVCAR-5 ovarian
  TGI: > 100 µM
NCI-H226 lung
  TGI: > 100 µM
EKVX NSCLC
  TGI: > 100 µM
SNB-75 CNS
  TGI: > 100 µM
SN12C renal
  TGI: > 100 µM
ACHN renal
  TGI: > 100 µM
786-0 renal
  TGI: 99.2 µM
A549 NSCLC
  TGI: > 100 µM
